Activity calls are given as the source filed them. How the calls were made is not given here.
System: CCRIS mutagenicity, Ames/micronucleus/aberration tests
Test: CCRIS mutagenicity studies
Conditions: Test System: AMES SALMONELLA TYPHIMURIUM
[1] = Strain/Indicator: TA100, Metabolic Activation: NONE, Method: PREINCUBATION
[2] = Strain/Indicator: TA98, Metabolic Activation: NONE, Method: STANDARD PLATE
[3] = Strain/Indicator: TA100, Metabolic Activation: NONE, Method: STANDARD PLATE

`CC(=O)Nc1nnc(-c2ccc([N+](=O)[O-])o2)s1` was tested. Which mutagenic call (Strain/Indicator: TA100, Metabolic Activation: RAT, LIVER, S-9, KC500 OR PHENOBARBITAL, Method: LIQUID SUSPENSION) did it give?
The mutagenic call was “active; positive”.

How did the mutagenic call (Strain/Indicator: TA100, Metabolic Activation: RAT, LIVER, S-9, AROCLOR 1254 (30%), Method: STANDARD PLATE) turn out when `O=C=Nc1ccc(Cc2ccccc2N=C=O)cc1` was run?
The mutagenic call was “inactive; negative”.

Which mutagenic call [1] does the source give for `CC(=O)[C@]1(C)O[C@@]12C=Cc1ccccc1C2=O` here?
Its mutagenic call is “inactive; negative”.

`C#C[C@]1(OC(C)=O)CC[C@H]2[C@@H]3CCC4=CC(=O)CC[C@@H]4[C@H]3CC[C@@]21C` was tested. Which mutagenic call (Strain/Indicator: TA97A, Metabolic Activation: NONE, Method: HOST-MEDIATED) did it give?
The mutagenic call was “inactive; negative”.

What about the mutagenic call (Strain/Indicator: TA97A, Metabolic Activation: NONE, Method: STANDARD PLATE) of the same compound?
The mutagenic call was “inactive; negative”.

And the mutagenic call (Strain/Indicator: TA97A, Metabolic Activation: RAT, LIVER, S-9, PHENOBARBITONE, Method: PREINCUBATION)?
The mutagenic call was “inactive; negative”.

And the mutagenic call (Strain/Indicator: TA98, Metabolic Activation: MOUSE, LIVER, S-9, Method: STANDARD PLATE)?
The mutagenic call was “inactive; negative”.

What about the mutagenic call (Strain/Indicator: TA98, Metabolic Activation: NONE, Method: HOST-MEDIATED) of the same compound?
Its mutagenic call is “inactive; negative”.

And the mutagenic call [2]?
The mutagenic call was “inactive; negative”.

And the mutagenic call (Strain/Indicator: TA98, Metabolic Activation: RAT, LIVER, S-9, AROCLOR 1254, Method: STANDARD PLATE)?
Its mutagenic call is “inactive; negative”.

What about the mutagenic call (Strain/Indicator: TA98, Metabolic Activation: RAT, LIVER, S-9, PHENOBARBITONE, Method: PREINCUBATION) of the same compound?
Its mutagenic call is “inactive; negative”.

What about the mutagenic call (Strain/Indicator: TA100, Metabolic Activation: MOUSE, LIVER, S-9, Method: STANDARD PLATE) of the same compound?
The mutagenic call was “inactive; negative”.

What about the mutagenic call (Strain/Indicator: TA100, Metabolic Activation: NONE, Method: HOST-MEDIATED) of the same compound?
Its mutagenic call is “inactive; negative”.

What about the mutagenic call [3] of the same compound?
The mutagenic call was “inactive; negative”.

And the mutagenic call (Strain/Indicator: TA100, Metabolic Activation: RAT, LIVER, S-9, AROCLOR 1254, Method: STANDARD PLATE)?
Its mutagenic call is “inactive; negative”.

What about the mutagenic call (Strain/Indicator: TA100, Metabolic Activation: RAT, LIVER, S-9, PHENOBARBITONE, Method: PREINCUBATION) of the same compound?
Its mutagenic call is “inactive; negative”.

And the mutagenic call (Strain/Indicator: TA1535, Metabolic Activation: MOUSE, LIVER, S-9, Method: STANDARD PLATE)?
The mutagenic call was “inactive; negative”.

And the mutagenic call (Strain/Indicator: TA1535, Metabolic Activation: NONE, Method: HOST-MEDIATED)?
Its mutagenic call is “inactive; negative”.

And the mutagenic call (Strain/Indicator: TA1535, Metabolic Activation: NONE, Method: STANDARD PLATE)?
The mutagenic call was “inactive; negative”.

And the mutagenic call (Strain/Indicator: TA1535, Metabolic Activation: RAT, LIVER, S-9, AROCLOR 1254, Method: STANDARD PLATE)?
The mutagenic call was “inactive; negative”.

What about the mutagenic call (Strain/Indicator: TA1535, Metabolic Activation: RAT, LIVER, S-9, PHENOBARBITONE, Method: PREINCUBATION) of the same compound?
The mutagenic call was “inactive; negative”.

And the mutagenic call (Strain/Indicator: TA1537, Metabolic Activation: MOUSE, LIVER, S-9, Method: STANDARD PLATE)?
Its mutagenic call is “inactive; negative”.

What about the mutagenic call (Strain/Indicator: TA1537, Metabolic Activation: NONE, Method: STANDARD PLATE) of the same compound?
Its mutagenic call is “inactive; negative”.

And the mutagenic call (Strain/Indicator: TA1537, Metabolic Activation: RAT, LIVER, S-9, AROCLOR 1254, Method: STANDARD PLATE)?
The mutagenic call was “inactive; negative”.

And the mutagenic call (Strain/Indicator: TA1538, Metabolic Activation: MOUSE, LIVER, S-9, Method: STANDARD PLATE)?
Its mutagenic call is “inactive; negative”.

What about the mutagenic call (Strain/Indicator: TA1538, Metabolic Activation: NONE, Method: STANDARD PLATE) of the same compound?
Its mutagenic call is “inactive; negative”.

And the mutagenic call (Strain/Indicator: TA1538, Metabolic Activation: RAT, LIVER, S-9, AROCLOR 1254, Method: STANDARD PLATE)?
The mutagenic call was “inactive; negative”.

How did the mutagenic call (Strain/Indicator: TA100, Metabolic Activation: HAMSTER, LIVER, S-9, AROCLOR 1254 (30%), Method: PREINCUBATION) turn out when `O=C(OCC1CO1)C1CCCCC1C(=O)OCC1CO1` (stereo not drawn) was run?
The mutagenic call was “active; positive”.

And the mutagenic call [1]?
The mutagenic call was “active; positive”.

And the mutagenic call (Strain/Indicator: TA100, Metabolic Activation: RAT, LIVER, S-9, AROCLOR 1254 (30%), Method: PREINCUBATION)?
Its mutagenic call is “active; positive”.

What about the mutagenic call (Strain/Indicator: TA1535, Metabolic Activation: HAMSTER, LIVER, S-9, AROCLOR 1254 (30%), Method: PREINCUBATION) of the same compound?
The mutagenic call was “active; positive”.

And the mutagenic call (Strain/Indicator: TA1535, Metabolic Activation: NONE, Method: PREINCUBATION)?
The mutagenic call was “active; positive”.

And the mutagenic call (Strain/Indicator: TA1535, Metabolic Activation: RAT, LIVER, S-9, AROCLOR 1254 (30%), Method: PREINCUBATION)?
Its mutagenic call is “active; positive”.

How did the mutagenic call (Strain/Indicator: TA98, Metabolic Activation: NONE, Method: PREINCUBATION) turn out when `Cc1ccc([N+](=O)[O-])cc1N=O` was run?
Its mutagenic call is “active; positive”.

What about the mutagenic call (Strain/Indicator: TA98, Metabolic Activation: NONE, Method: SUSPENSION/PLATE) of the same compound?
The mutagenic call was “inactive; negative”.

What about the mutagenic call (Strain/Indicator: TA98, Metabolic Activation: RAT, LIVER, S-9, AROCLOR, Method: PREINCUBATION) of the same compound?
The mutagenic call was “active; positive”.

What about the mutagenic call (Strain/Indicator: TA98, Metabolic Activation: RAT, LIVER, S-9, PHENOBARBITAL AND 5,6-BENZOFLAVONE, Method: SUSPENSION/PLATE) of the same compound?
Its mutagenic call is “inactive; negative”.

And the mutagenic call (Strain/Indicator: TA100, Metabolic Activation: NONE, Method: SUSPENSION/PLATE)?
The mutagenic call was “inactive; negative”.

What about the mutagenic call (Strain/Indicator: TA100, Metabolic Activation: RAT, LIVER, S-9, PHENOBARBITAL AND 5,6-BENZOFLAVONE, Method: SUSPENSION/PLATE) of the same compound?
The mutagenic call was “inactive; negative”.

How did the mutagenic call [2] turn out when `CCN(C(=S)[S-])c1ccccc1.CCN(C(=S)[S-])c1ccccc1.[Zn+2]` was run?
The mutagenic call was “inactive; negative”.

What about the mutagenic call (Strain/Indicator: TA98, Metabolic Activation: S-9, Method: STANDARD PLATE) of the same compound?
Its mutagenic call is “inactive; negative”.

And the mutagenic call [3]?
Its mutagenic call is “inactive; negative”.

What about the mutagenic call (Strain/Indicator: TA100, Metabolic Activation: S-9, Method: STANDARD PLATE) of the same compound?
The mutagenic call was “inactive; negative”.

Reference: PubChem BioAssay AID1259407 (Chemical Carcinogenesis Research Information System (CCRIS), 2018)
